Assay [1] has as its target T1, Kv1.3 channels (Homo sapiens, UniProt P22001).
T1 construct: endogenous in cells
Nature of the assay: Whole-cell patch-clamp block of Kv1.3 currents in activated human peripheral T lymphocytes. The format is cell-based. The protocol: (§1) Dose-response relationships of the synthetic wild-type toxin and the single and double mutants on Kv1.3 channels The blocking efficiency of the toxins was tested on activated lymphocytes. The remaining current fraction (RCF) was calculated as I/I0, where I and I0 represent the whole-cell current amplitude in the presence and absence of the toxin at the indicated concentrations, respectively. Data points are plotted with error bars representing SEM and were fitted with a Hill-equation to obtain the Kd of the binding.
(§2) Kv1.3 currents were measured in human peripheral T lymphocytes. Heparinized human peripheral venous blood was obtained from healthy volunteers. Mononuclear cells were separated by Ficoll-Hypaque density gradient centrifugation. Collected cells were washed twice with Ca^2+ and Mg^2+ free Hank's solution containing 25 mM HEPES buffer (pH 7.4). Cells were cultured in a 5% CO2 incubator at 37° C. in 24 well culture plates in RPMI-1640 supplements with 10% FCS (Sigma-Aldrich, Hungary) 100 μg/ml penicillin, 100 μg/ml streptomycin and 2 mM L-glutamine at 0.5×10^6/ml density for 3-4 days. The culture medium also contained 2.5 or 5 μg/ml of phytohemagglutinin A (PHA-P, Sigma-Aldrich Kft, Hungary) to increase K^+ channel expression [Bagdany M, et al. Mol Pharmacol 2005; 67:1034-1044].
(§3) Whole-cell currents were measured in voltage-clamped cells using Axopatch 200A and Multiclamp 700B amplifiers connected to a personal computer using Axon Digidata 1200 and 1322A data acquisition hardware, respectively (Molecular Devices Inc., Sunnyvale, Calif.). Series resistance compensation up to 70% was used to minimize voltage errors and achieve good voltage-clamp conditions. […] The measured osmolarity of the external solutions was between 302 and 308 mOsm. […] The measured osmolarity of the internal solutions was approximately 295 mOsm. Bath perfusion around the measured cell with different test solutions was achieved using a gravity-flow perfusion system. […]
On the technique in general: Patch clamp records ionic current or voltage across a cell membrane.

For assay [2], the system named is Kv1.3 channels. The description is as above. The format is cell-based. The protocol: as §1, §2, §3
The target in assay [3] is T1, Kv1.3 channels. As to conditions: natural toxin, Bagdany et al., 2005; cited from earlier work.
The target of a further assay is T2, hKv1.2 (Homo sapiens, UniProt P16389).
T2 construct: expressed in transfected cells; host or cells: Cos-7 cells, co-transfected with a separate GFP plasmid
As to conditions: natural toxin, Bagdany et al., 2005, read-out: Kd for Kv1.2, cited from earlier work.

For assay [4], the system named is Kv1.3. As to the kind of experiment: Literature block of Kv1.3 by ADWX-1. The text has this:
Han, S et al. have applied a structural approach [Han S et al, J Biol Chem 2008; 283(27):19058-19065.] to improve Kv1.3 selectivity of scorpion toxins. The authors started from the BmKTX scorpion toxin (Bhutus martensi) and designed a peptide with three point mutations based on binding studies to the Kv1.3 K channel at the molecular interaction level. Specifically, glycine (G) 11 was substituted with arginine (R), isoleucine (I) 28 with threonine (T) and aspartate (D) 33 with histidine (H) (BmKTX-Arg11Thr28His33 or ADWX-1 in short). […] 2009 231(1): 59-87.].

The test system of assay [5] is Kv1.3. As to conditions: found by Cahalan and Chandy 2009; read-out: IC50 for block of Kv1.3; cited from earlier work.

Where two headings read alike, the source gives them in different places. Where a SMILES comes first, the peptide text is derived from it.

The values that follow come from US9062119B2, “Modified peptide toxins” (University of Debrecen, priority 2011, dated 2015).

As usually defined, the Kd is the constant that tells how readily two partners part at equilibrium. By IC50 is commonly meant the concentration at which inhibition is half-maximal.

T1 sequence (P22001 whole entry): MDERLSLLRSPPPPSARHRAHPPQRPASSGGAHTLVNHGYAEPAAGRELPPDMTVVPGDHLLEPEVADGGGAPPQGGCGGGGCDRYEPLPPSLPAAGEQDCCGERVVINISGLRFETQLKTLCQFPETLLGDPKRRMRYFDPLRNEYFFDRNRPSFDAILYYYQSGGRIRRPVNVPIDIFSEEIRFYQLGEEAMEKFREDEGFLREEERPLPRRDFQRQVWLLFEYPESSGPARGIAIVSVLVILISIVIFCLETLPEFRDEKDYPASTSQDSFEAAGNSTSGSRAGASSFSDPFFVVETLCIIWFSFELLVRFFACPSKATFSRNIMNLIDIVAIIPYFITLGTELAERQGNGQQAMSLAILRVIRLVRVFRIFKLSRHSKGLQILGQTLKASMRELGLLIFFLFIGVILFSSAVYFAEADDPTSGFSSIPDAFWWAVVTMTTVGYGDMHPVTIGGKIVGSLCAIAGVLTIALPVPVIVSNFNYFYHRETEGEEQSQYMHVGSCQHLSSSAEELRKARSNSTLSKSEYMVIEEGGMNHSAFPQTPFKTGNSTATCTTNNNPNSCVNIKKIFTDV
T2 sequence (P16389 whole entry): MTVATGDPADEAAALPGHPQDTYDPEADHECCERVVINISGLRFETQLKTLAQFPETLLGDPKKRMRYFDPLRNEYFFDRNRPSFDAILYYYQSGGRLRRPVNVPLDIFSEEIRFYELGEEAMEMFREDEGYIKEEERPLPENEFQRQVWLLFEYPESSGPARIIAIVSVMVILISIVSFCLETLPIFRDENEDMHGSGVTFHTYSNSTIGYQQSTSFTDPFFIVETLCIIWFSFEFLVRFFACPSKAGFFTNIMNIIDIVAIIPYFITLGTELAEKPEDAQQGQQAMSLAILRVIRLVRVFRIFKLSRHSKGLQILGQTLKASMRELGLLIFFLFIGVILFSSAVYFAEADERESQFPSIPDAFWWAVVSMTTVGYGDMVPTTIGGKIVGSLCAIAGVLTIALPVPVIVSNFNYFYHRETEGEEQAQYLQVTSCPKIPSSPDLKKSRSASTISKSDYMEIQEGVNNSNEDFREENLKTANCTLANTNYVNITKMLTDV

On Kv1.3 channels [1], `CSCC[C@@H]1NC(=O)[C@@H]2CSSC[C@H](NC(=O)[C@H](CCC(=O)O)NC(=O)[C@H](CCCCN)NC(=O)[C@H](CC(N)=O)NC(=O)[C@H](C)NC(=O)[C@H](C)NC(=O)[C@H](C)N)C(=O)N[C@@H]([C@@H](C)O)C(=O)NCC(=O)N3CCC[C@H]3C(=O)N[C@@H](CCC(N)=O)C(=O)N[C@@H](Cc3c[nH]cn3)C(=O)N[C@H]3CSSC[C@H](NC(=O)[C@H](CCCCN)NC(=O)[C@H](CCCNC(=N)N)NC(=O)[C@H](CC(N)=O)NC1=O)C(=O)N[C@@H](CCCCN)C(=O)N[C@H]1CSSC[C@H](NC(=O)[C@H](Cc4ccccc4)NC(=O)[C@H](CC(N)=O)NC(=O)[C@H]([C@@H](C)O)NC3=O)C(=O)N[C@@H](CCCNC(=N)N)C(=O)N[C@@H](CC(=O)O)C(=O)N[C@@H](C)C(=O)N[C@@H](CCCCN)C(=O)N[C@@H](CSSC[C@@H](C(=O)N[C@@H](CCCCN)C(=O)O)NC(=O)[C@H](CC(N)=O)NC(=O)[C@H]([C@@H](C)O)NC1=O)C(=O)N[C@@H]([C@@H](C)O)C(=O)N[C@@H](Cc1c[nH]cn1)C(=O)NCC(=O)N[C@@H](CCCCN)C(=O)N2` [(N-AAAN, K16D, N17A, F32T)] (HELM PEPTIDE1{A.A.A.N.K.E.C.T.G.P.Q.H.C.T.N.F.C.R.D.A.K.C.T.H.G.K.C.M.N.R.K.C.K.C.T.N.C.K}$PEPTIDE1,PEPTIDE1,7:R3-27:R3|PEPTIDE1,PEPTIDE1,13:R3-32:R3|PEPTIDE1,PEPTIDE1,17:R3-34:R3|PEPTIDE1,PEPTIDE1,22:R3-37:R3$$$V2.0; N-terminus and C-terminus assumed; bridges inferred) displayed a Kd of 394 nM.
Anuroctoxin [natural toxin]: the “selectivity ratio SR=Kd[1.2]/Kd[1.3]” value with Kv1.3 channels [2] was found to be 9. Further, the “selectivity for Kv1.3 over Kv1.2” value in the assay with Kv1.3 channels [2] (ratio of Kd,Kv1.2 and Kd,Kv1.3) was 9 fold. For the same compound, the Kd at Kv1.3 channels [3] was 0.73 nM; at hKv1.2 (listed as Anuroctoxin), 6.14 nM; at hKv1.2, 6.1 nM.
In the case of BmKTX-Arg11Thr28His33 [ADWX-1], the “lower potency of Cahalan/Chandy value versus Han value” in the assay with Kv1.3 [4] worked out at 1000 fold. For the same compound, the IC50 in the assay on Kv1.3 [5] was 1.2 nM.
